This passage reports IC50 results from US7285554B2, “Pyrazole derivative” (Astellas Pharma Inc., priority 1997, dated 2007).

For the assay, the system named is IL-2 production from Jurkat cells. The assay is described as follows: cells. Particulars: Homo sapiens, read-out: IL-2 production inhibition IC50 value.

As a reminder, the IC50 is the concentration that gives 50% inhibition.

A value given as a limit tells only on which side of the number the result lay.

Regarding `Cc1ncsc1C(=O)Nc1ccc(-n2nc(C(F)(F)F)cc2C(F)(F)F)cc1` [Example 1, 4-methyl-4′-[3,5-bis(trifluoromethyl)-1H-pyrazol-1-yl]thiazole-5-carboxyanilide], the IC50 is ≤ 1 µM.

Regarding `Cn1nc(C(F)(F)F)cc1-c1ccc(C(=O)Nc2ccccc2Cl)s1` [Example 5, 2′-chloro-5-(1-methyl-3-trifluoromethyl-1H-pyrazol-5-yl)thiophene-2-carboxyanilide], the IC50 is ≤ 1 µM.
